# Target: C-domain of MALT1 (amino acids 329-824) (Homo sapiens (Human), UniProt Q9UDY8)
# Assay: MALT1 biochemical assay (fluorescence lifetime enzyme activity assay)
# Conditions: 60 min preincubation, 2.5 nM enzyme, 1 μM substrate
# Description: The readout parameter is the increase of fluorescence lifetime over time, proportional to enzyme activity.
# The assay employs a short peptide substrate labeled with the single fluorophore PT14 as a fluorescence lifetime probe sensitive to the cleavage state of the substrate (PT14: 6-(9-oxo-9H-acridin-10-yl)-hexanoate, AssayMetrics, UK). […] The assay buffer consists of 200 mM Tris/HCl at pH 7.5, 0.8 M Na citrate, 100 μM EGTA, 100 μM DTT and 0.05% (w/v) CHAPS. […] Test compounds were dissolved in 100% (v/v) DMSO or a mixture containing 90% (v/v) DMSO and 10% (v/v) H2O at a stock concentration of 100 mM. Serial dilutions of test compounds were prepared using either 100% (v/v) DMSO or a mixture containing 90% (v/v) DMSO and 10% (v/v) H2O.
# The exponent, p, is the Hill coefficient.
# Chain of C-domain of MALT1 (amino acids 329-824) (Q9UDY8 329-824): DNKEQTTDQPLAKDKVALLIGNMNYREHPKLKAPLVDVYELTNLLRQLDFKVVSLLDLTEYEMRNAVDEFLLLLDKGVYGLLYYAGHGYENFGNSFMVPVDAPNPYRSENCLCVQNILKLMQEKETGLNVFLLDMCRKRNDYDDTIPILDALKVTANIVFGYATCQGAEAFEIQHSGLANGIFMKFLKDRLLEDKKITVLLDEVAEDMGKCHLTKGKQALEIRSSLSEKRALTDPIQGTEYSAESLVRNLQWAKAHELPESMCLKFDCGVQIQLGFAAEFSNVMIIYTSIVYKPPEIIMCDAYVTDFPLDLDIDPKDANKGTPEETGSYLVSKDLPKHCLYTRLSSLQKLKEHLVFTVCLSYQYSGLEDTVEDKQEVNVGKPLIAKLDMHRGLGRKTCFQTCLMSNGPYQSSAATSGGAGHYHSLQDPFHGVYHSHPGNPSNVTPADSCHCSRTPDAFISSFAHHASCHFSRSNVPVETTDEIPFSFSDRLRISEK
row,IC50 [nM],Structure (SMILES)
1,4,"CC(C)c1c(NC(=O)Nc2ccc(-c3ccnc(N)n3)c(Cl)c2)cnc2cc(Cl)nn12 [Example 23, 1-(4-(2-aminopyrimidin-4-yl)-3-chlorophenyl)-3-(2-chloro-7-isopropylpyrazolo[1,5-a]pyrimidin-6-yl)urea]"
2,9,"Cc1cc(CO)nn1-c1ccc(NC(=O)Nc2cnc3cc(Cl)nn3c2C(C)C)cc1Cl [Example 28, 1-(3-chloro-4-(3-(hydroxymethyl)-5-methyl-1H-pyrazol-1-yl)phenyl)-3-(2-chloro-7-isopropylpyrazolo[1,5-a]pyrimidin-6-yl)urea]"
3,18,"CC(C)(C)OC(=O)N1CCOC(c2c(NC(=O)Nc3cnc(-n4nccn4)c(Cl)c3)cnc3cc(Cl)nn23)C1 (stereo not shown) [Example 66, tert-butyl 2-(2-chloro-6-(3-(5-chloro-6-(2H-1,2,3-triazol-2-yl)pyridin-3-yl)ureido)pyrazolo[1,5-a]pyrimidin-7-yl)morpholine-4-carboxylate]"
4,80,"Cn1ccnc1-c1c(NC(=O)Nc2cnc(-n3nccn3)c(Cl)c2)cnc2cc(Cl)nn12 [Example 86, 1-(5-chloro-6-(2H-1,2,3-triazol-2-yl)pyridin-3-yl)-3-(2-chloro-7-(1-methyl-1H-imidazol-2-yl)pyrazolo[1,5-a]pyrimidin-6-yl)urea]"
5,5,"C[C@H](O[C@H]1CCOC1)c1c(NC(=O)Nc2cnc(-n3nccn3)c(Cl)c2)cnc2cc(Cl)nn12 [Example 101, 1-(5-chloro-6-(2H-1,2,3-triazol-2-yl)pyridin-3-yl)-3-(2-chloro-7-((S)-1-(((S)-tetrahydrofuran-3-yl)oxy)ethyl)pyrazolo [1,5-a]pyrimidin-6-yl)urea]"
6,76,"O=C(Nc1cnc(-n2nccn2)c(Cl)c1)Nc1cnc2cc(Cl)nn2c1C1CNCCO1 (stereo not shown) [Example 115, 1-(5-chloro-6-(2H-1,2,3-triazol-2-yl)pyridin-3-yl)-3-(2-chloro-7-(morpholin-2-yl)pyrazolo[1,5-a]pyrimidin-6-yl)urea]"
7,12,"CN[C@@H](C)c1c(NC(=O)Nc2cnc(-n3nccn3)c(Cl)c2)cnc2cc(Cl)nn12 [Example 119, (S)-1-(5-chloro-6-(2H-1,2,3-triazol-2-yl)pyridin-3-yl)-3-(2-chloro-7-(1-(methylamino)ethyl)pyrazolo[1,5-a]pyrimidin-6-yl)urea]"
8,41,"O=C(Nc1cnc(-n2nccn2)c(Cl)c1)Nc1cnc2cc(Cl)nn2c1C1COCCN1 (stereo not shown) [Example 123, 1-(5-chloro-6-(2H-1,2,3-triazol-2-yl)pyridin-3-yl)-3-(2-chloro-7-(morpholin-3-yl)pyrazolo[1,5-a]pyrimidin-6-yl)urea]"

row,Structure (SMILES),IC50 [nM]
1,"C[C@H](O)c1c(NC(=O)Nc2ccnc(C(F)(F)F)c2)cnc2cc(Cl)nn12 [Example 114, (S)-1-(2-chloro-7-(1-hydroxyethyl)pyrazolo[1,5-a]pyrimidin-6-yl)-3-(2-(trifluoromethyl)pyridin-4-yl)urea]",7

# Tested on: IL2 promoter
# Assay: Human IL2 promoter reporter gene assay (RGA) in Jurkat cells
# Format: cell-based
# Conditions: […], heading: IL2 reporter gene assay IC50, anti-CD28 mAb + PMA stimulation 5.5 h
# Description: Human IL2 Promoter Reporter Gene Assay (RGA) in Jurkat Cells
# The transfected Jurkat clone K22 290_H23 was propagated in RPMI 1640 supplemented with 10% heat inactivated fetal calf serum, 50 μM 2-mercaptoethanol and 1 mg/ml Geneticin. The cell concentration should not exceed 1×10e6/ml during culturing. The cells should not exceed passage 30. Prior to the assay the cells were washed and prepared to the concentration of 2×10e6 cells/ml.
# Compound dilutions were made as 2×-concentrated solutions then diluted ½ by addition to cells. Two hundred and fifty μl of compound dilution and 250 μl of cells were mixed together in wells of a 96-deep well plate. Cells/compounds premix were incubated 30 min at 37° C. and 5% CO2 directly in the deep well plate.
# After pre-incubation of cells with compounds, cells were stimulated with anti-CD28 mAb (clone 15E8) at 3 μg/ml+PMA at 1 μg/ml. Both co-stimulants were diluted in culture medium at a 10×-concentrated solution. 10 μl of co-stimulants were pipetted into the white 96-well plates and 100 μl of cell/compound mix was immediately added in duplicates. The cells were stimulated for 5.5 h at 37° C. and 5% CO2.
# After cell stimulation, 50 μl of BriteLitePlus reagent (Perkin Elmer) was added to each well and the bioluminescence was measured with a Wallac EnVision reader (Perkin Elmer).
row,IC50 [nM],Structure (SMILES)
1,526,"CC(C)c1c(NC(=O)Nc2ccc(-c3ccnc(N)n3)c(Cl)c2)cnc2cc(Cl)nn12 [Example 23, 1-(4-(2-aminopyrimidin-4-yl)-3-chlorophenyl)-3-(2-chloro-7-isopropylpyrazolo[1,5-a]pyrimidin-6-yl)urea]"
2,28,"CC(C)(C)OC(=O)N1CCOC(c2c(NC(=O)Nc3cnc(-n4nccn4)c(Cl)c3)cnc3cc(Cl)nn23)C1 (stereo not shown) [Example 66, tert-butyl 2-(2-chloro-6-(3-(5-chloro-6-(2H-1,2,3-triazol-2-yl)pyridin-3-yl)ureido)pyrazolo[1,5-a]pyrimidin-7-yl)morpholine-4-carboxylate]"
3,44,"Cn1ccnc1-c1c(NC(=O)Nc2cnc(-n3nccn3)c(Cl)c2)cnc2cc(Cl)nn12 [Example 86, 1-(5-chloro-6-(2H-1,2,3-triazol-2-yl)pyridin-3-yl)-3-(2-chloro-7-(1-methyl-1H-imidazol-2-yl)pyrazolo[1,5-a]pyrimidin-6-yl)urea]"
4,112,"CO[C@@H](C)c1c(NC(=O)Nc2ccnc(C#N)c2)cnc2cc(Cl)nn12 [Example 105, (S)-1-(2-chloro-7-(1-methoxyelhyl)pyrazolo[1,5-a]pyrimidin-6-yl)-3-(2-cyanopyridin-4-yl)urea]"
5,17,"COCC(OC)c1c(NC(=O)Nc2cnc(-n3nccn3)c(C(F)(F)F)c2)cnc2cc(Cl)nn12 (stereo not shown) [Example 108, 1-(6-(2H-1,2,3-triazol-2-yl)-5-(trifluoromethyl)pyridin-3-yl)-3-(2-chloro-7-(1,2-dimethoxyethyl)pyrazolo[1,5-a]pyrimidin-6-yl)urea]"
6,199,"COCC(OC)c1c(NC(=O)Nc2ccnc(C(F)(F)F)c2)cnc2cc(Cl)nn12 (stereo not shown) [Example 109, 1-(2-chloro-7-(1,2-dimethoxyethyl)pyrazolo[1,5-a]pyrimidin-6-yl)-3-(2-(trifluoromethyl)pyridin-4-yl)urea]"
7,41,"COC[C@@H](C)c1c(NC(=O)Nc2cnc(-n3nccn3)c(C(F)(F)F)c2)cnc2cc(Cl)nn12 [Example 110, (S)-1-(6-(2H-1,2,3-triazol-2-yl)-5-(trifluoromethyl)pyridin-3-yl)-3-(2-chloro-7-(1-methoxypropan-2-yl)pyrazolo[1,5-a]pyrimidin-6-yl)urea]"
8,138,"COC[C@H](C)c1c(NC(=O)Nc2cnc(-n3nccn3)c(C(F)(F)F)c2)cnc2cc(Cl)nn12 [Example 111, (R)-1-(6-(2H-1,2,3-triazol-2-yl)-5-(trifluoromethyl)pyridin-3-yl)-3-(2-chloro-7-(1-methoxypropan-2-yl)pyrazolo[1,5-a]pyrimidin-6-yl)urea]"
9,78,"C[C@@H](O)c1c(NC(=O)Nc2cnc(-n3nccn3)c(C(F)(F)F)c2)cnc2cc(Cl)nn12 [Example 113, (R)-1-(6-(2H-1,2,3-triazol-2-yl)-5-(trifluoromethyl)pyridin-3-yl)-3-(2-chloro-7-(1-hydroxyethyl)pyrazolo[1,5a]pyrimidin-6-yl)urea]"

row,Structure (SMILES),IC50 [nM]
1,"CC(C)c1c(NC(=O)Nc2cc(C(F)(F)F)ncc2-n2nccn2)cnc2cc(Cl)nn12 [Example 112, 1-(5-(2H-1,2,3-triazol-2-yl)-2-(trifluoromethyl)pyridin-4-yl)-3-(2-chloro-7-isopropylpyrazolo[1,5-a]pyrimidin-6-yl)urea]",58

# Source: patent publication US10442808B2, “Pyrazolo pyrimidine derivatives and their use as MALT1 inhbitors” (NOVARTIS AG, priority 2014, dated 2019)
